# Laboratory results reported in patent EP1749819A1, “(rac)-N-piperidinyl-5-(4-chlorophenyl)-1-(2,4-dichlorophenyl)-4,5-dihydro-1H-pyrazole-3-carboxamide hydrates” (LABORATORIOS DEL DR. ESTEVE, S.A., priority 2005, dated 2007).
# How the values were obtained:
# [1] = tested on: Male NMRI mice; assay: Mouse tetrad model, agonistic effect; format: in vivo; settings: 5 mg/kg i.v.
# Description: (§1) Substances with affinity for cannabinoid receptors are known to produce a wide range of pharmacological effects. It is also known that intravenous administration of a substance with affinity for cannabinoid receptors in mice produces analgesia , hypothermia, sedation and catalepsy. Individually, none of these effects can be considered as proof that a tested substance has affinity for cannabinoid-receptors, since all of these effects are common for various classes of centrally active aaents. However, substances, which show all of these effects, i.e. substances that are active in this so-called tetrad model are considered to have affinity for the cannabinoid receptors. It has further been shown that cannabinoid receptor antagonists are higly effective in blocking the effects of a cannabinoid agonist in the mouse tetrad model.
# (§2) The tetrad model is described, for example, in the publication of A. C. Howlett et al, International Union of Pharmacology XXVII. Classification of Cannabinoid Receptors, Pharmacol Rev 54, 161-202 , 2002 and David R. Compton et al., "In-vivo Characterization of a Specific Cannabinoid Receptor Antagonist (SR141716A) :Inhibition of Tetrahydrocannbinol- induced Responses and Apparent Agonist Activity", J. Pharmacol. Exp. Ther. 277 , 2, 586-594, 1996. The corresponding parts of the description are hereby incorporated by reference. […]
# (§3) Before testing in the behavioral procedures given below, mice are acclimatized to the experimental setting. Pre-Treatment control values are determined for analgesia hot plate latency (in seconds), rectal temperature, sedation and catalepsy.
# In order to determine the agonistic activty of the substance to be tested, the mice are injected intravenously with the substance to be tested or the vehicle alone. 15 minutes after injection, latency in hot plate analgesia is measured. Rectal temperature, sedation and catalepsy are measured 20 minutes after injection.
# (§4) The hot plate analgesia is determined according to the method described in Woolfe D. et al. "The evaluation of analgesic action of pethidine hydrochloride (Demerol)", J. Pharmacol. Exp. Ther. 80, 300-307,1944.
# (§5) The mice are placed on a hot plate (Harvard Analgesimeter) at 55 ± 0.5 °C until they show a painful sensation by licking their paws or jumping and the time for these sensations to occur is recorded. This reading is considered the basal value (B). […]
# (§6) Fifteen minuts after the administration of the substance to be tested, the mice are again placed on the hot plate and the afore described procedure is repeated. This period is called the post-treatment reading (PT).
# (§7) The degree of analgesia is calculated from the formula: %MPEof Analgesia = (PT−B)/(PC−B) × 100 [formula] […]
# [2] = biological target: T1, transfected human CB1 and CB2 receptors: CB1-Receptor (Homo sapiens, UniProt P21554); assay: In-vitro determination of affinity to CB1 receptor (radioligand [^3H]-CP55940); format: binding
# T1 construct: purchased Receptor Biology; Inc
# Experimental: (§8) Brockie et al., "Agonist-inverse agonist characterization at CB1 and CB2 cannabinoid receptors of L-759633, L759656 and AM630", British Journal of Pharmacology, 126, 665-672, (1999), whereby the transfected human CB1 and CB2 receptors of Receptor Biology. Inc. are used. The radioligand used for both receptors is [^3H]-CP55940.
# (§9) The affinity of the inventive substituted pyrazoline compounds to CB1/CB2 receptors was determined as described above.
# [3] = tested on: Male NMRI mice; assay: Mouse tetrad model, antagonistic effect against Win 55212-2; format: in vivo; settings: 5 mg/kg i.v. prior to Win 55212-2 in a dose of 1,25mg/kg i.v.
# Description: as §1, §2, §3
# In order to determine the antagonistic activity the identical procedure is used as for the determination of the agonistic effects, but with the difference that the substance to be evaluated for its antagonistic activity is injectected 5 minutes before the intravenous injection of 1.25 mg/kg Win-55,212 a known cannabinoid-receptor agonist.
# as §4, §5, §6, §7
# [4] = biological target: T2, transfected human CB1 and CB2 receptors: CB2-Receptor (Homo sapiens, UniProt P34972); assay: In-vitro determination of affinity to CB2 receptor (radioligand [^3H]-CP55940); format: binding
# T2 construct: purchased Receptor Biology; Inc
# Experimental: as §8, §9
# T1 sequence (P21554 whole entry): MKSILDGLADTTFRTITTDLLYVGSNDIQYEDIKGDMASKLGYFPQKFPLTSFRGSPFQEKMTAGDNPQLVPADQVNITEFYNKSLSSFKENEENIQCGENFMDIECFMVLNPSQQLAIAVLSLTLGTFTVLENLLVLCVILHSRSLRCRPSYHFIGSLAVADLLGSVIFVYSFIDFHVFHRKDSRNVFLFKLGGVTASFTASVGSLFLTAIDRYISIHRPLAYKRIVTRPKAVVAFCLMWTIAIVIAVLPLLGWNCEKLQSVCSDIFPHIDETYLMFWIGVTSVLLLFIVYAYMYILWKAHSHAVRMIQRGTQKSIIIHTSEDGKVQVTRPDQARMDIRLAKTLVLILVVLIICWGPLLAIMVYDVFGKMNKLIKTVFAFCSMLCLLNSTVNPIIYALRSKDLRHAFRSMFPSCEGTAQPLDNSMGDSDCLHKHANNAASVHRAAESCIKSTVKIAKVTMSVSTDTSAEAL
# T2 sequence (P34972 whole entry): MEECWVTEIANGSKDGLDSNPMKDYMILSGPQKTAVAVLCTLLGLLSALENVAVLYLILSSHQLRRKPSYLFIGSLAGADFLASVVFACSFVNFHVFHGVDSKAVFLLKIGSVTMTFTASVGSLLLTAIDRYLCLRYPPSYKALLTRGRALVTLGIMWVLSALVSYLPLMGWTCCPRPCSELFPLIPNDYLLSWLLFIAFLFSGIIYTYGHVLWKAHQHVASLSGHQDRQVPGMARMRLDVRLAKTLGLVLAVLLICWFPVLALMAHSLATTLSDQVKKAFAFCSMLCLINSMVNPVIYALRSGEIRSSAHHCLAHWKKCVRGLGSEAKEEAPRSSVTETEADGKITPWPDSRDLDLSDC
smiles,measurement,setting,value
"O=C(NN1CCCCC1)C1=NN(c2ccc(Cl)cc2Cl)C(c2ccc(Cl)cc2)C1 (stereo not shown) [Example 1, N-piperidinyl-5-(4-chlorophenyl)-1-(2,4-dichlorophenyl)-4,5-dihydro-1H-pyrazole-3-carboxamide]",Agonistic effect A: Hot-Plate test,[1]; 15 minutes after injection,0
same,Agonistic effect B: Hypothermia,[1]; 20 minutes after injection,0
same,Agonistic effect C: Catalepsy,[1]; 20 minutes after injection,0
same,Agonistic effect D: Sedation,[1]; 20 minutes after injection,0
same,Ki,[2],< 25 nM
same,Antagonistic Effect A: Hot-Plate test,[3],74
same,Antagonistic Effect B: Hypothermia,[3],100
same,Antagonistic Effect C: Catalepsy,[3],100
same,Antagonistic Effect D: Sedation,[3],100
same,Ki,[4],> 1000 nM
